Laboratory results from patent publication US20250311722A1, “IMPROVED BIOCIDE” (Purgos ApS, priority 2022, published 2025).

Columns and labels:
[1] = tested on: bacteria; assay: Tap water and polluted water treated with NDBA: bacteria count and BSI; format: cell-based; details: 300 grams water, 32° C.
[2] = tested on: bacteria; assay: NBDA in different PVB dispersions at 32° C., ATP analysis (LuminUltra); format: cell-based; parameters: bacteria count 6 mo after adding NBDA / bacteria count 9 mo after adding NBDA / bacteria count 1 d after adding NBDA / bacteria count 1 wk after adding NBDA / bacteria count 1 mo after adding NBDA / bacteria count 3 mo after adding NBDA / bacteria count after 4 mo after addition of NBDA / bacteria count after 6 mo after addition of NBDA: unit not given here; details: 0.5% NBDA; for bacteria count after 4 mo after addition of NBDA / bacteria count after 4 wk after addition of NBDA / bacteria count after 6 mo after addition of NBDA / bacteria count after 8 wk after addition of NBDA / bacteria count after 9 mo after addition of NBDA / bacteria count after 12 mo after addition of NBDA: long term
Method: The amines selected from stock samples was made from factory prepared stock and sealed solutions delivered in technical quality (95-99.9%). […] Tertiary amine, water and PVB-dispersion was mechanically stirred in IKA vertical fixed blade stirrer for sampling in 2-5 minutes. Conditions was industrial clean, meaning no special precautions was taken to prevent contamination, except normal cleanliness and between operations dishwashing procedures. Working temperatures was 20-25 degre Celsius, and all incubations was made in thermostatic 32-degree Celsius incubator ovens for bottled flasks and open petri dishes. […] The protocol is provided by LuminUltra Technologies. Basically all tested dispersions are manufactured in same way, with only differences in additives, and the variations of origin/source of the waste material (See Example 1). However the specification of the SharkDispersions-all have same basic composition since the stability of the dispersion forces this. The in situ contamination of the production batches may also vary in handling and different storage methods in flasks, IBC's and tanks. In all production the dispersion before treated with tertiary amine is pasteurized due to the general level of production temperatures +90 degrees for several minutes. The biocidal effectivity of NBDA in different PVB dispersions was measured as explained above.

[3] = PVB dispersion FX2, 32° C., with 0.5% peroxide
[4] = PVB dispersion FX2, 32° C., without peroxide
[5] = PVB dispersion FX6, 32° C., with 0.5% peroxide
[6] = PVB dispersion FX6, 32° C., without peroxide
[7] = PVB dispersion SX, 32° C., with 0.5% peroxide
[8] = PVB dispersion SX, 32° C., without peroxide
[9] = PVB dispersion WX2s, 32° C., with 0.5% peroxide
[10] = PVB dispersion WX2s, 32° C., without peroxide
[11] = PVB dispersion WX, 32° C., with 0.5% peroxide
[12] = PVB dispersion WX, 32° C., without peroxide

SMILES: CCCCN(CCO)CCO [NBDA, N-butyldiethanolamine]
- BSI ([1]; Polluted water + 0.5%): 48
- bacteria count ([1]; Polluted water + 0.5%): 56.2
- BSI ([1]; Tapwater + 0.5%): 56
- bacteria count ([1]; Tapwater + 0.5%): 7.35
- bacteria count 1 mo after adding NBDA [2, 3]: 22
- bacteria count 1 wk after adding NBDA [2, 3]: 9.9
- bacteria count 3 mo after adding NBDA [2, 3]: 3
- bacteria count 1 d after adding NBDA [2, 3]: 17.6
- bacteria count 1 mo after adding NBDA [2, 4]: 77.1
- bacteria count 1 wk after adding NBDA [2, 4]: 1.8
- bacteria count 3 mo after adding NBDA [2, 4]: 64
- bacteria count 6 mo after adding NBDA [2, 4]: 15.5
- bacteria count 1 d after adding NBDA [2, 4]: 7.7
- bacteria count 1 mo after adding NBDA [2, 5]: 0.93
- bacteria count 1 wk after adding NBDA [2, 5]: 239
- bacteria count 3 mo after adding NBDA [2, 5]: 28
- bacteria count 6 mo after adding NBDA [2, 5]: 62
- bacteria count 9 mo after adding NBDA [2, 5]: 15.4
- bacteria count 1 d after adding NBDA [2, 5]: 31.7
- bacteria count 1 mo after adding NBDA [2, 6]: 0.93
- bacteria count 1 wk after adding NBDA [2, 6]: 25
- bacteria count 3 mo after adding NBDA [2, 6]: 1.4
- bacteria count 6 mo after adding NBDA [2, 6]: 1.1
- bacteria count 9 mo after adding NBDA [2, 6]: 1.51
- bacteria count 1 d after adding NBDA [2, 6]: 48.5
- bacteria count 1 mo after adding NBDA [2, 7]: 24.2
- bacteria count 1 wk after adding NBDA [2, 7]: 48.1
- bacteria count 3 mo after adding NBDA [2, 7]: 54.6
- bacteria count 6 mo after adding NBDA [2, 7]: 53
- bacteria count 9 mo after adding NBDA [2, 7]: 21.9
- bacteria count 1 d after adding NBDA [2, 7]: 24.3
- bacteria count 1 mo after adding NBDA [2, 8]: 19.5
- bacteria count 1 wk after adding NBDA [2, 8]: 42.1
- bacteria count 3 mo after adding NBDA [2, 8]: 26
- bacteria count 6 mo after adding NBDA [2, 8]: 9
- bacteria count 9 mo after adding NBDA [2, 8]: 15.7
- bacteria count 1 d after adding NBDA [2, 8]: 17.2
- bacteria count 1 mo after adding NBDA [2, 9]: 74.9
- bacteria count 1 wk after adding NBDA [2, 9]: 4.5
- bacteria count 3 mo after adding NBDA [2, 9]: 28.9
- bacteria count 6 mo after adding NBDA [2, 9]: 7.8
- bacteria count 1 d after adding NBDA [2, 9]: 29.7
- bacteria count 1 mo after adding NBDA [2, 10]: 25.2
- bacteria count 1 wk after adding NBDA [2, 10]: 7.2
- bacteria count 3 mo after adding NBDA [2, 10]: 13
- bacteria count 6 mo after adding NBDA [2, 10]: 39.9
- bacteria count 1 d after adding NBDA [2, 10]: 17.6
- bacteria count 1 mo after adding NBDA [2, 11]: 83.4
- bacteria count 1 wk after adding NBDA [2, 11]: 79
- bacteria count 3 mo after adding NBDA [2, 11]: 13.3
- bacteria count 6 mo after adding NBDA [2, 11]: 63.8
- bacteria count 9 mo after adding NBDA [2, 11]: 35
- bacteria count 1 d after adding NBDA [2, 11]: 4.2
- bacteria count 1 mo after adding NBDA [2, 12]: 31.6
- bacteria count 1 wk after adding NBDA [2, 12]: 180
- bacteria count 3 mo after adding NBDA [2, 12]: 7.4
- bacteria count 6 mo after adding NBDA [2, 12]: 11.2
- bacteria count 9 mo after adding NBDA [2, 12]: 57.7
- bacteria count 1 d after adding NBDA [2, 12]: 110
- bacteria count after 4 mo after addition of NBDA ([2]; PVB dispersion FX1, 32° C.): 10.1
- bacteria count after 4 wk after addition of NBDA ([2]; PVB dispersion FX1, 32° C.): 3.7
- bacteria count after 6 mo after addition of NBDA ([2]; PVB dispersion FX1, 32° C.): 1
- bacteria count after 8 wk after addition of NBDA ([2]; PVB dispersion FX1, 32° C.): 18.5
- bacteria count after 9 mo after addition of NBDA ([2]; PVB dispersion FX1, 32° C.): 34
- bacteria count after 12 mo after addition of NBDA ([2]; PVB dispersion FX1, 32° C.): 2.3
- bacteria count after 4 mo after addition of NBDA ([2]; PVB dispersion FX2, 32° C.): 13.1
- bacteria count after 4 wk after addition of NBDA ([2]; PVB dispersion FX2, 32° C.): 12.4
- bacteria count after 6 mo after addition of NBDA ([2]; PVB dispersion FX2, 32° C.): 6.9
- bacteria count after 8 wk after addition of NBDA ([2]; PVB dispersion FX2, 32° C.): 4.6
- bacteria count after 9 mo after addition of NBDA ([2]; PVB dispersion FX2, 32° C.): 67.9
- bacteria count after 12 mo after addition of NBDA ([2]; PVB dispersion FX2, 32° C.): 15.6
- bacteria count after 4 mo after addition of NBDA ([2]; PVB dispersion FX6, 32° C.): 9.1
- bacteria count after 4 wk after addition of NBDA ([2]; PVB dispersion FX6, 32° C.): 64.3
- bacteria count after 6 mo after addition of NBDA ([2]; PVB dispersion FX6, 32° C.): 52.1
- bacteria count after 8 wk after addition of NBDA ([2]; PVB dispersion FX6, 32° C.): 12.1
- bacteria count after 9 mo after addition of NBDA ([2]; PVB dispersion FX6, 32° C.): 7.3
- bacteria count after 12 mo after addition of NBDA ([2]; PVB dispersion FX6, 32° C.): 367
- bacteria count after 4 mo after addition of NBDA ([2]; PVB dispersion WX1, 32° C.): 8.1
- bacteria count after 4 wk after addition of NBDA ([2]; PVB dispersion WX1, 32° C.): 38.4
- bacteria count after 6 mo after addition of NBDA ([2]; PVB dispersion WX1, 32° C.): 5
- bacteria count after 8 wk after addition of NBDA ([2]; PVB dispersion WX1, 32° C.): 4.6
- bacteria count after 9 mo after addition of NBDA ([2]; PVB dispersion WX1, 32° C.): 8.9
- bacteria count after 12 mo after addition of NBDA ([2]; PVB dispersion WX1, 32° C.): 16.8
- bacteria count after 4 mo after addition of NBDA ([2]; PVB dispersion WX25, 32° C.): 68
- bacteria count after 4 wk after addition of NBDA ([2]; PVB dispersion WX25, 32° C.): 94
- bacteria count after 6 mo after addition of NBDA ([2]; PVB dispersion WX25, 32° C.): 170
- bacteria count after 8 wk after addition of NBDA ([2]; PVB dispersion WX25, 32° C.): 82
- bacteria count after 9 mo after addition of NBDA ([2]; PVB dispersion WX25, 32° C.): 238
- bacteria count after 12 mo after addition of NBDA ([2]; PVB dispersion WX25, 32° C.): 181
